In ChEMBL document CHEMBL1136478, “New cerebrosides from Euphorbia peplis L.: antimicrobial activity evaluation” (2003):
≈ marks a conversion by molar mass, not a printed value.

Tests used:
Candida albicans [1] = experiment: Antifungal activity against Candida albicans after 24 hr incubation; type: functional
Candida albicans [2] = experiment: Antifungal activity against Candida albicans after 48 hr incubation; type: functional
Candida parapsilosis [3] = experiment: Antifungal activity against Candida parapsilosis after 24 hr incubation; type: functional; settings: Lodderomyces parapsilosis
Nakaseomyces glabratus [4] = experiment: Antifungal activity against Candida glabrata after 24 hr incubation; type: functional
Nakaseomyces glabratus [5] = experiment: Antifungal activity against Candida glabrata after 48 hr incubation; type: functional
[6] = system: Mycobacterium tuberculosis; experiment: Antibacterial activity against Mycobacterium tuberculosis H172; type: functional
[7] = system: Mycobacterium tuberculosis; experiment: Antibacterial activity against Mycobacterium tuberculosis H242; type: functional
[8] = system: Mycobacterium tuberculosis; experiment: Antibacterial activity against Mycobacterium tuberculosis H331; type: functional
[9] = system: Mycobacterium tuberculosis; experiment: Antibacterial activity against human Mycobacterium tuberculosis H37Rv; type: functional
Candida parapsilosis [10] = experiment: Antifungal activity against Candida parapsilosis after 48 hr incubation; type: functional; settings: Lodderomyces parapsilosis
Staphylococcus aureus = experiment: Antibacterial activity against Staphylococcus aureus ATCC 25923; type: functional
Escherichia coli = experiment: Antibacterial activity against Escherichia coli ATCC 25922; type: functional
Cryptococcus neoformans [11] = experiment: Antifungal activity against Cryptococcus neoformans after 24 hr incubation
Cryptococcus neoformans [12] = experiment: Antifungal activity against Cryptococcus neoformans after 48 hr incubation

Row | Structure (SMILES) | MIC (Candida albicans [1]) [µg/mL] | MIC (Candida albicans [2]) [µg/mL] | MIC (Candida parapsilosis [3]) [µg/mL] | MIC (Nakaseomyces glabratus [4]) [µg/mL] | MIC (Nakaseomyces glabratus [5]) [µg/mL] | MIC [6] [µg/mL] | MIC [7] [µg/mL] | MIC [8] [µg/mL] | MIC [9] [µg/mL] | MIC (Candida parapsilosis [10]) [µg/mL] | MIC (Staphylococcus aureus) [µg/mL] | MIC (Escherichia coli) [µg/mL] | MIC (Cryptococcus neoformans [11]) [µg/mL] | MIC (Cryptococcus neoformans [12]) [µg/mL]
1 | CCCCCCCC/C=C/CCCCCCCCCCCCCC[C@@H](O)C(=O)N[C@@H](CO[C@@H]1OC(CO)[C@@H](O)C(O)C1O)[C@H](O)[C@H](O)CCC/C=C/CCCCCCCCC (some centres undefined) | > 128 | > 128 | > 128 | > 128 | > 128 | 40 (≈ 46 µM) | 80 (≈ 91.9 µM) | 40 (≈ 46 µM) | 40 (≈ 46 µM) | > 128 | > 160 | > 160 | 128 (≈ 147 µM) | > 128
2 | CCCCCCCCC/C=C/CC/C=C/[C@@H](O)[C@H](CO[C@@H]1OC(CO)[C@@H](O)C(O)C1O)NC(=O)[C@H](O)CCCCCCCCCCCCCC (some centres undefined) | > 128 | > 128 | > 128 | > 128 | > 128 | > 160 | > 160 | > 160 | > 160 | > 128 | > 160 | > 160 | 128 (≈ 179 µM) | > 128
3 | CCCCCCCCC/C=C/CCC[C@@H](O)[C@@H](O)[C@H](CO[C@@H]1OC(CO)[C@@H](O)C(O)C1O)NC(=O)[C@H](O)CCCCCCCCCCCCCCCCCCCCCC (some centres undefined) | > 128 | > 128 | > 128 | > 128 | > 128 | > 160 | > 160 | > 160 | > 160 | > 128 | > 160 | > 160 | 128 (≈ 152 µM) | > 128
4 | CCCCCCCC/C=C/CCCCCCCCCCCC[C@@H](O)C(=O)N[C@@H](CO[C@@H]1OC(CO)[C@@H](O)C(O)C1O)[C@H](O)[C@H](O)CCC/C=C/CCCCCCCCC (some centres undefined) | > 128 | > 128 | > 128 | > 128 | > 128 | > 160 | > 160 | > 160 | 160 (≈ 190 µM) | > 128 | 160 (≈ 190 µM) | 160 (≈ 190 µM) | 64 (≈ 76 µM) | > 128
5 | O=C(O)c1cn(C2CC2)c2cc(N3CCNCC3)c(F)cc2c1=O [CIPROFLOXACIN] |  |  |  |  |  | 0.25 (≈ 0.754 µM) | 0.125 (≈ 0.377 µM) | 0.125 (≈ 0.377 µM) | 0.25 (≈ 0.754 µM) |  | 0.5 (≈ 1.51 µM) |  |  | 
6 | Clc1ccc(COC(Cn2ccnc2)c2ccc(Cl)cc2Cl)c(Cl)c1 (centres undefined) [MICONAZOLE] | 2.5 (≈ 6.01 µM) | 40 (≈ 96.1 µM) | 0.625 (≈ 1.5 µM) | 5 (≈ 12 µM) | 10 (≈ 24 µM) |  |  |  |  | 1.25 (≈ 3 µM) |  |  | 0.156 (≈ 0.375 µM) | 0.156 (≈ 0.375 µM)
